Experimental data: patent EP4043466B1, “PRC2 INHIBITORS” (Mirati Therapeutics, Inc., priority 2018, dated 2019)

Tests used:
[1] = target: purified human, His-tagged PRC2 complex (Homo sapiens, UniProt O75530+Q15910); experiment: Hot Spot HMT assay: inhibition of PRC2 enzymatic activity (transfer of tritiated methyl from SAM to core histone, filter binding); type: biochemical; details: Inhibition of PRC2-mediated enzymatic activity; 10 nM PRC2 complex, 0.05 mg/ml core histone H3, 1 uM 3H-SAM, 1 hr at 30°C
Sequence of purified human, His-tagged PRC2 complex (Q15910 whole entry): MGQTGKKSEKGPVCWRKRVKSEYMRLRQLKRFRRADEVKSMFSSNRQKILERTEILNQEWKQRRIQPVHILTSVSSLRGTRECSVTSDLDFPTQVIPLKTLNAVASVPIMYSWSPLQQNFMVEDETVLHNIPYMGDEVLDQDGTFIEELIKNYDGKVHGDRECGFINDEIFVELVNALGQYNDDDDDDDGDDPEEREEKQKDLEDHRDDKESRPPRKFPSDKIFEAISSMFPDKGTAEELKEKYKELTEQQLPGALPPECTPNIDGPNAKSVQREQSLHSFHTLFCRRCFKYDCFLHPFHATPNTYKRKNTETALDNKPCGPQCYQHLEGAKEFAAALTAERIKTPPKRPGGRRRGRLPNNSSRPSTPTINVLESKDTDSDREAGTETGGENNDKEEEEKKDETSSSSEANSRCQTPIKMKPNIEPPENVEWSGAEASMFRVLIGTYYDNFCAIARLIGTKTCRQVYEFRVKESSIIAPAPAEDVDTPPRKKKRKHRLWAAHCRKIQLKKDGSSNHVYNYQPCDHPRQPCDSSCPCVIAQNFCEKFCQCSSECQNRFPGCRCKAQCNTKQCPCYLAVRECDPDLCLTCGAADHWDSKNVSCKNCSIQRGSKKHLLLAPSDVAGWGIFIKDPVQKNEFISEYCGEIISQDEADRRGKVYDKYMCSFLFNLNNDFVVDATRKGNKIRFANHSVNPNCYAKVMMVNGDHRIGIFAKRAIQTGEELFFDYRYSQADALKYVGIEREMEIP
Sequence of purified human, His-tagged PRC2 complex (O75530 whole entry): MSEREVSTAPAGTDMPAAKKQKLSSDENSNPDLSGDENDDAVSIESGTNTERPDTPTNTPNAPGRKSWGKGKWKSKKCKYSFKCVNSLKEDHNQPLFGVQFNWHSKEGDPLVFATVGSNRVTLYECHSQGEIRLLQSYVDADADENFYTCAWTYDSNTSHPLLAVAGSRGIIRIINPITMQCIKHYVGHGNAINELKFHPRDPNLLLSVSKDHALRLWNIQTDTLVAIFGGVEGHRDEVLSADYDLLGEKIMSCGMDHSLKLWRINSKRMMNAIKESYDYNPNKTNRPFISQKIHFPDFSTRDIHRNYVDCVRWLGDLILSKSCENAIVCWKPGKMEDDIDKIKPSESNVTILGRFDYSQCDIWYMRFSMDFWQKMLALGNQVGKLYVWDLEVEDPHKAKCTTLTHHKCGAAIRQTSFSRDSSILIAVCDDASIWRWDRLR
Sequence of purified human, His-tagged PRC2 complex (Q15022 whole entry partner): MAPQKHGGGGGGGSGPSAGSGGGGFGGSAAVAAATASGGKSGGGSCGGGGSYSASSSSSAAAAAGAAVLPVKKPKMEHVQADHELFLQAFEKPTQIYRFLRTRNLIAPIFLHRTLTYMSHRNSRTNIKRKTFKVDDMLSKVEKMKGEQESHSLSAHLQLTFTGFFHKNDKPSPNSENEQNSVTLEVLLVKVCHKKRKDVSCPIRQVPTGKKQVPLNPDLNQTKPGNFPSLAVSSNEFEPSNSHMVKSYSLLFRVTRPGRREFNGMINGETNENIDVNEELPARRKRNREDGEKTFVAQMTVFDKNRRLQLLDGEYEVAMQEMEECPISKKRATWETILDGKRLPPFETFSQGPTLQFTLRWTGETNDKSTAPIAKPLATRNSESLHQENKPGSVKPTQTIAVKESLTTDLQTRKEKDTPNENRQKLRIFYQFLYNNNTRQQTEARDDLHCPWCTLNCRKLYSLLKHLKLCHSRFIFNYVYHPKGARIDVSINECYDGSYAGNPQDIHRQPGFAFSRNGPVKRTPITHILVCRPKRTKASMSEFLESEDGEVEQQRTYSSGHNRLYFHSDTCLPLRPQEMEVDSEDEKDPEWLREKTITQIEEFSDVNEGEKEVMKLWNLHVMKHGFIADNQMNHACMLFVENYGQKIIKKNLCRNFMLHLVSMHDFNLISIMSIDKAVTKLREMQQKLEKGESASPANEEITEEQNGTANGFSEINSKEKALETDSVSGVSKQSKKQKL
Sequence of purified human, His-tagged PRC2 complex (Q6ZN18 whole entry partner): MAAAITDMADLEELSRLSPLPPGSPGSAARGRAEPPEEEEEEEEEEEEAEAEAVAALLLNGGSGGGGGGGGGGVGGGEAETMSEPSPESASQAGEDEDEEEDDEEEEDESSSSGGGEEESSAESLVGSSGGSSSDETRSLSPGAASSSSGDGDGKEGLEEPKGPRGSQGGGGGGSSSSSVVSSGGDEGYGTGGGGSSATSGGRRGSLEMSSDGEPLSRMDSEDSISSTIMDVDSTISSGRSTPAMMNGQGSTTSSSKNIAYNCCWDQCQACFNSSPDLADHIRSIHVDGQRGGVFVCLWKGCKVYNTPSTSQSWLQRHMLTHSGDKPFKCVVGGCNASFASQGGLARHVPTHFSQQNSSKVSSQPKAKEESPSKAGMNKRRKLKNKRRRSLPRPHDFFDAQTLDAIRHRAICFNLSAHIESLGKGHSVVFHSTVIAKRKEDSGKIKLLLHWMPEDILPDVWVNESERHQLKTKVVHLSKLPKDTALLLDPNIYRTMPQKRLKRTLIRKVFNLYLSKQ
Sequence of purified human, His-tagged PRC2 complex (Q09028 whole entry partner): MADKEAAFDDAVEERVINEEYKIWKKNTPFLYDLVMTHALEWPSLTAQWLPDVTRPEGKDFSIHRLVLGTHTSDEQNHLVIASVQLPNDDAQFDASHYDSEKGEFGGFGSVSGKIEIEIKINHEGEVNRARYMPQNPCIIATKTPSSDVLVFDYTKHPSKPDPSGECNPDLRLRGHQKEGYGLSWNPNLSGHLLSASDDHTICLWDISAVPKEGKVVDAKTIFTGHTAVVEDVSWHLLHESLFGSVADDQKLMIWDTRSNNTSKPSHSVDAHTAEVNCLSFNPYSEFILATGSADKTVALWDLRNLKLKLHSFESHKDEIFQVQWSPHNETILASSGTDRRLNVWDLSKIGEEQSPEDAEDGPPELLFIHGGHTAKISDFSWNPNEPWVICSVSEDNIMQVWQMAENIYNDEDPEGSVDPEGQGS
Method in brief: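 Five-subunit complex (His-EZH2, Flag-EED, His-SUZ12, His-AEBP2, His-RbAp48) at 10 nM with 0.05 mg/ml core histone H3, pH 8 Tris buffer, 1% DMSO; 20 min compound pre-incubation at 30°C. Started with 1 uM [3H]-SAM, 1 hr at 30°C; tritiated H3 counted by scintillation. Compounds diluted from 1.0 µM top concentration.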

[2] = system: PRC2-mediated histone H3 methylation; experiment: Tri-Methyl Histone H3 (Lys 27) Sandwich ELISA in Pfeiffer cells: inhibition of PRC2-mediated histone H3 methylation; type: cell-based, human; details: Inhibition of EZH2-mediated histone H3 trimethylation, Pfeiffer cells (EZH2 A677G), 96 hours incubation
Method in brief: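 Pfeiffer DLBCL cells (EZH2 A677G mutant) treated with 3-fold serial dilutions, 1µM to 0.15 nM final, for 96 hours at 37°C. Acid (0.4M HCl) histone extracts, neutralized, assayed by H3K27me3 sandwich ELISA with HRP/TMB read at 450 nm.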

Karpas 422 cells = experiment: Karpas 422 cell viability, CTG (Cell Titre Glo) assay; type: cell-based, human; details: Inhibition of proliferation of Karpas 422 cells (EZH2 Y641N), viability measured Day 4, Day 7 or Day 11, time point of the tabulated values not stated
Method in brief: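 Karpas 422 cells (EZH2 Y641N, DLBCL) plated at 1000 cells/well in RPMI with 20% FBS, exposed to compound 10µM down to 1.5nM in 3-fold steps at 37 °C. Viability by CellTiter-Glo on Days 4, 7 and 11; Day 11 plates re-fed with fresh medium and compound on Day 7. IC50 per time point.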

| Compound | IC50 [1] | IC50 [2] | IC50 (Karpas 422 cells) | IC50 ([2]; Homo sapiens) | IC50 (Karpas 422 cells; Homo sapiens) |
| --- | --- | --- | --- | --- | --- |
| 8-(4-((dimethylamino)methyl)phenyl)-5-(((5-fluoro-2,3-dihydrobenzofuran-4-yl)methyl-d2)amino)imidazo[1,2-c]pyrimidine-2-carbonitrile [Example 165] | < 0.1 µM | 0.1 to 0.5 µM | ≤ 0.25 µM |  |  |
| N#Cc1cn2c(NCc3c(F)ccc4c3CCO4)ncc(-c3ccc4c(c3)CCNC4=O)c2n1 [Example 172, 5-(((5-fluoro-2,3-dihydrobenzofuran-4-yl)methyl)amino)-8-(1-oxo-1,2,3,4-tetrahydroisoquinolin-6-yl)imidazo[1,2-c]pyrimidine-2-carbonitrile] | < 0.1 µM |  |  | 0.1 to 0.5 µM | 0.25 to 0.5 µM |
| CN1CCc2cc(-c3cnc(NCc4c(F)ccc5c4CCO5)n4cc(C#N)nc34)ccc2C1=O [Example 168, 5-(((5-fluoro-2,3-dihydrobenzofuran-4-yl)methyl)amino)-8-(2-methyl-1-oxo-1,2,3,4-tetrahydroisoquinolin-6-yl)imidazo[1,2-c]pyrimidine-2-carbonitrile] | < 0.1 µM |  |  | 0.1 to 0.5 µM | ≤ 0.25 µM |
| N#Cc1cn2c(NCc3c(F)ccc4c3CCO4)ncc(-c3ccc([C@H]4CCCN4)cc3)c2n1 [Example 220, (R)-5-(((5-fluoro-2,3-dihydrobenzofuran-4-yl)methyl)amino)-8-(4-(pyrrolidin-2-yl)phenyl)imidazo[1,2-c]pyrimidine-2-carbonitrile] | 0.1 to 0.5 µM |  |  | 0.1 to 0.5 µM | ≤ 0.25 µM |
| COC1CN(Cc2ccc(-c3cnc(NCc4c(F)ccc5c4CCO5)n4cc(C#N)nc34)cc2)C1 [Example 50, 5-(((5-fluoro-2,3-dihydrobenzofuran-4-yl)methyl)amino)-8-(4-((3-methoxyazetidin-1-yl)methyl)phenyl)imidazo[1,2-c]pyrimidine-2-carbonitrile] | < 0.1 µM |  |  | 0.1 to 0.5 µM | ≤ 0.25 µM |
| N#Cc1cn2c(NCc3c(F)ccc4c3CCO4)ncc(-c3ccccc3C#N)c2n1 [Example 187, 8-(2-cyanophenyl)-5-(((5-fluoro-2,3-dihydrobenzofuran-4-yl)methyl)amino)imidazo[1,2-c]pyrimidine-2-carbonitrile] | < 0.1 µM |  |  | 0.1 to 0.5 µM | 0.25 to 0.5 µM |
| CN(C)CCn1nccc1-c1cnc(NCc2c(F)ccc3c2CCO3)n2cc(C#N)nc12 [Example 230, 8-(1-(2-(dimethylamino)ethyl)-1H-pyrazol-5-yl)-5-(((5-fluoro-2,3-dihydrobenzofuran-4-yl)methyl)amino)imidazo[1,2-c]pyrimidine-2-carbonitrile] | < 0.1 µM |  |  | ≤ 0.1 µM | ≤ 0.25 µM |
| N#Cc1cn2c(NCc3c(F)ccc4c3CCO4)ncc(-c3ccn(CC4CCCO4)n3)c2n1 (stereo not drawn) [Example 153, 5-(((5-fluoro-2,3-dihydrobenzofuran-4-yl)methyl)amino)-8-(1-((tetrahydrofuran-2-yl)methyl)-1H-pyrazol-3-yl)imidazo[1,2-c]pyrimidine-2-carbonitrile] | 0.1 to 0.5 µM |  |  | 0.1 to 0.5 µM | 0.25 to 0.5 µM |
| Cc1cc(S(=O)(=O)C(F)(F)F)ccc1-c1cnc(NCc2c(F)ccc3c2CCO3)n2cc(C#N)nc12 [Example 184, 5-(((5-fluoro-2,3-dihydrobenzofuran-4-yl)methyl)amino)-8-(2-methyl-4-((trifluoromethyl)sulfonyl)phenyl)imidazo[1,2-c]pyrimidine-2-carbonitrile] | 0.1 to 0.5 µM |  |  | 0.1 to 0.5 µM | 0.25 to 0.5 µM |
| Cc1cc(CN(C)C)ccc1-c1cnc(NCc2c(F)ccc3c2CCO3)n2cc(C#N)nc12 [Example 32, 8-(4-((dimethylamino)methyl)-2-methylphenyl)-5-(((5-fluoro-2,3-dihydrobenzofuran-4-yl)methyl)amino)imidazo[1,2-c]pyrimidine-2-carbonitrile] | 0.1 to 0.5 µM |  |  | ≤ 0.1 µM | ≤ 0.25 µM |
| Cc1ncc(-c2cnc(NCc3c(F)ccc4c3CCO4)n3cc(C#N)nc23)cn1 [Example 69, 5-(((5-fluoro-2,3-dihydrobenzofuran-4-yl)methyl)amino)-8-(2-methylpyrimidin-5-yl)imidazo[1,2-c]pyrimidine-2-carbonitrile] | < 0.1 µM |  |  | 0.1 to 0.5 µM | ≤ 0.25 µM |
| CN(C)CCOc1ccc(-c2cnc(NCc3c(F)ccc4c3CCO4)n3cc(C#N)nc23)cc1 [Example 189, 8-(4-(2-(dimethylamino)ethoxy)phenyl)-5-(((5-fluoro-2,3-dihydrobenzofuran-4-yl)methyl)amino)imidazo[1,2-c]pyrimidine-2-carbonitrile] | 0.1 to 0.5 µM |  |  | 0.1 to 0.5 µM | ≤ 0.25 µM |
| Cc1ncc(F)cc1-c1cnc(NCc2c(F)ccc3c2CCO3)n2cc(C#N)nc12 [Example 62, 5-(((5-fluoro-2,3-dihydrobenzofuran-4-yl)methyl)amino)-8-(5-fluoro-2-methylpyridin-3-yl)imidazo[1,2-c]pyrimidine-2-carbonitrile] | < 0.1 µM |  |  | 0.1 to 0.5 µM | ≤ 0.25 µM |
| N#Cc1cn2c(NCc3c(F)ccc4c3CCO4)ncc(-c3ccc4c(c3)CNC4)c2n1 [Example 205, 5-(((5-fluoro-2,3-dihydrobenzofuran-4-yl)methyl)amino)-8-(isoindolin-5-yl)imidazo[1,2-c]pyrimidine-2-carbonitrile] | 0.1 to 0.5 µM |  |  | ≤ 0.1 µM | ≤ 0.25 µM |
| N#Cc1cn2c(NCc3c(F)ccc4c3CCO4)ncc(-c3ccc(S(=O)(=O)C(F)(F)F)cc3)c2n1 [Example 82, 5-(((5-fluoro-2,3-dihydrobenzofuran-4-yl)methyl)amino)-8-(4-((trifluoromethyl)sulfonyl)phenyl)imidazo[1,2-c]pyrimidine-2-carbonitrile] | 0.1 to 0.5 µM |  |  | > 0.5 µM | 0.25 to 0.5 µM |
| [2H]C([2H])([2H])N(Cc1ccc(-c2cnc(NCc3c(F)ccc4c3CCO4)n3cc(C#N)nc23)c(C)c1)C([2H])([2H])[2H] [Example 202, 8-(4-((bis(methyl-d3)amino)methyl)-2-methylphenyl)-5-(((5-fluoro-2,3-dlhydrobenzofuran-4-yl)methyl)amino)imidazo[1,2-c]pyrimidine-2-carbonitrile] | < 0.1 µM |  |  | ≤ 0.1 µM | ≤ 0.25 µM |
| CN(C)C1(c2ccc(-c3cnc(NCc4c(F)ccc5c4CCO5)n4cc(C#N)nc34)cc2)CC1 [Example 171, 8-(4-(1-(dimethylamino)cyclopropyl)phenyl)-5-(((5-fluoro-2,3-dihydrobenzofuran-4-yl)methyl)amino)imidazo[1,2-c]pyrimidine-2-carbonitrile] | < 0.1 µM |  |  | 0.1 to 0.5 µM | ≤ 0.25 µM |
| N#Cc1cn2c(NCc3c(F)ccc4c3CCO4)ncc(-c3ccncn3)c2n1 [Example 57, 5-(((5-fluoro-2,3-dihydrobenzofuran-4-yl)methyl)amino)-8-(pyrimidin-4-yl)imidazo[1,2-c]pyrimidine-2-carbonitrile] | < 0.1 µM |  |  | 0.1 to 0.5 µM | ≤ 0.25 µM |
| N#Cc1cn2c(NCc3c(F)ccc4c3CCO4)ncc(-c3cc[nH]c(=O)c3)c2n1 [Example 218, 5-(((5-fluoro-2,3-dihydrobenzofuran-4-yl)methyl)amino)-8-(2-oxo-1,2-dihydropyridin-4-yl)imidazo[1,2-c]pyrimidine-2-carbonitrile] | < 0.1 µM |  |  | 0.1 to 0.5 µM | 0.25 to 0.5 µM |
| Cn1nc(C#N)cc1-c1cnc(NCc2c(F)ccc3c2CCO3)n2cc(C#N)nc12 [Example 212, 8-(3-cyano-1-methyl-1H-pyrazol-5-yl)-5-(((5-fluoro-2,3-dihydrobenzofuran-4-yl)methyl)amino)imidazo[1,2-c]pyrimidine-2-carbonitrile] | < 0.1 µM |  |  | ≤ 0.1 µM | ≤ 0.25 µM |
| [2H]C1Oc2ccc(F)c(C([2H])([2H])Nc3ncc(-c4ccc(CN(C)C)cc4C)c4nc(C#N)cn34)c2C1[2H] (stereo not drawn) [Example 223, 8-(4-((dimethylamino)methyl)-2-methylphenyl)-5-(((5-fluoro-2,3-dihydrobenzofuran-4-yl-2,3-d2)methyl-d2)amino)imidazo[1,2-c]pyrimidine-2-carbonitrile] | < 0.1 µM |  |  | 0.1 to 0.5 µM | ≤ 0.25 µM |
| CN(C)Cc1ccc(-c2cnc(NCc3c(F)ccc4c3CCO4)n3cc(C#N)nc23)cc1C#N [Example 201, 8-(3-cyano-4-((dimethylamino)methyl)phenyl)-5-(((5-fluoro-2,3-dihydrobenzofuran-4-yl)methyl)amino)imidazo[1,2-c]pyrimidine-2-carbonitrile] | < 0.1 µM |  |  | 0.1 to 0.5 µM | ≤ 0.25 µM |
| N#Cc1cn2c(NCc3c(F)ccc4c3CCO4)ncc(-c3cccc(C(=O)O)c3)c2n1 [Example 174, 3-(2-cyano-5-(((5-fluoro-2,3-dihydrobenzofuran-4-yl)methyl)amino)imidazo[1,2-c]pyrimidin-8-yl)benzoic acid] | < 0.1 µM |  |  | > 0.5 µM | > 0.5 µM |
